Details: for mass density / kinematic viscosity: 101.33 kPa; for mass density / kinematic viscosity / vapor or sublimation pressure: Liquid; for mass density: Pycnometric method; for surface tension liquid-gas: Capillary rise; for kinematic viscosity: Capillary tube (Ostwald / Ubbelohde) method; for vapor or sublimation pressure: Closed cell (Static) method

CC(C)O [propan-2-ol]
Details | kinematic viscosity [m2/s] | mass density [kg/m3] | surface tension liquid-gas [mN/m] | vapor or sublimation pressure [kPa]
263.1 K | – | 810.9 | – | –
283.1 K | – | 795.3 | – | –
293.2 K | 3.12e-06 | – | 21.4 | –
295.3 K | – | 784.3 | – | –
297.9 K | – | – | – | 6.38
303.2 K | 2.35e-06 | – | – | –
303.3 K | – | – | 20.6 | –
303.6 K | – | 777.5 | – | –
303.7 K | – | – | – | 8.93
313.2 K | – | – | 19.8 | –
321.2 K | – | – | – | 21.91
323.2 K | 1.39e-06 | – | – | –
323.3 K | – | – | 19 | –
323.4 K | – | 760.1 | – | –
333.2 K | – | – | 18.2 | –
333.5 K | – | – | – | 39.46
343.3 K | 9e-07 | 741 | 17.4 | 61.57
352.9 K | – | – | – | 92.28
362.5 K | – | – | – | 134.96
